Patent US20250269043A1, “TARGETED BIFUNCTIONAL DEGRADERS” (YALE UNIVERSITY, priority 2019, published 2025)
Several values for one entry are separate records, joined by “and”; a condition that tells them apart may be missing. Equal values may be shown once.

What was measured:
α-DNP antibody = experiment: In vivo depletion of α-DNP antibody from serum in mice (ELISA); details: for serum α-DNP antibody levels compared to PBS: FIG. 94; for α-DNP antibody depleted from serum 24 hours after a single dose: vehicle control 24%
Description: FIG. 94 illustrates that serum levels of α-DNP antibody decrease more rapidly following repeated treatment with DNP-GN3. Serum antibody levels were measured using an ELISA assay. Each experimental group contained three mice. Statistical differences in experiments involving in vivo depletion of α-DNP antibody were assessed by repeated measures two-way ANOVA with Tukey's tests for post-hoc comparison of simple effects between each of the treatment groups and PBS.
Single doses of DNP-GN3 were also found to be efficacious at mediating α-DNP antibody depletion, albeit less effectively than daily dosing (FIG. 96). […] Therefore, it was concluded that DNP-GN3 is able to mediate the depletion of a monoclonal antibody from serum, and functions across a wide range of target protein concentrations and dosing regimens.
DNP-GN3 was also found to be efficacious in depleting polyclonal α-DNP antibody from serum collected from mice immunized with DNP-keyhole limpet haemocyanin (KLH) (FIG. 97). […] Thus, the small molecule DNP-GN3 is not restricted in function to only monoclonal mouse antibodies, but is also effective at removing polyclonal α-DNP antibodies from circulation in mice.

HepG2 cells = experiment: DNP-AF3-mediated α-DNP antibody endocytosis by HepG2 cells (flow cytometry); assay type: cell-based, human; details: α-DNP antibody 1 nM
Description: The intracellular fluorescence of cells that were incubated at 37° C. with both fluorescently labeled α-DNP antibody and DNP-AF3 for a given amount of time was examined. Cells were then washed, removed from the plate with trypsin, and subjected to flow cytometry.
It was then determined if reagents which inhibit ternary complex formation inhibit endocytosis mediated by DNP-AF3.
Next, whether inhibitors of specific endocytic pathways inhibited α-DNP antibody endocytosis was determined (FIG. 106).

[1] = target: T1, ASGPR on the surface of HepG2 cells and α-DNP antibody (Homo sapiens, UniProt P07306+P07307); experiment: DNP-GN3-mediated ternary complex formation: association of fluorescently labeled α-DNP antibody with HepG2 cells in suspension; assay type: cell-based; details: for concentration of DNP-GN3 eliciting half-maximal fluorescence association: FIG. 86A
T1 sequence (P07306 1-291): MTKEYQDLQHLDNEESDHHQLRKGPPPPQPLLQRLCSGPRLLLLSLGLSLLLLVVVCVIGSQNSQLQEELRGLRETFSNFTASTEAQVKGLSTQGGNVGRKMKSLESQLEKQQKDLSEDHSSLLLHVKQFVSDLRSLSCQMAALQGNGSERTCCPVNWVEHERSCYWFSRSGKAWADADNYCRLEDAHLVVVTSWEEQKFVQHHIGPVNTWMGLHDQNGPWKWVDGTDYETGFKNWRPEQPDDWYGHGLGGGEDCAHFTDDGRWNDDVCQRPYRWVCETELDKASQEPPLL
T1 sequence (P07307 1-311): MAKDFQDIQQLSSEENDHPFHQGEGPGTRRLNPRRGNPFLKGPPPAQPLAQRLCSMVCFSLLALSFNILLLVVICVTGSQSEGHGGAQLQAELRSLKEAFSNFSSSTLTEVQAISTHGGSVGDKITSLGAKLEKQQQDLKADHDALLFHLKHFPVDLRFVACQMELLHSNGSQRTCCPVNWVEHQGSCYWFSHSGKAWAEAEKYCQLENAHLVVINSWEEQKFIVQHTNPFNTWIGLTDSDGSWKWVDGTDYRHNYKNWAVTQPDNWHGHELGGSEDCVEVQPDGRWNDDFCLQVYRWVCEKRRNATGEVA
From the text: It was investigated whether DNP-GN3 could mediate the formation of a ternary complex between a fluorescently labeled α-DNP antibody and ASGPR on the surface of immortalized human hepatocyte HepG2 cells in suspension. […] The observed bell-shaped response to DNP-GN3 concentration is consistent with the prozone effect commonly observed in systems wherein a ternary complex is formed.

[2] = Pharmacokinetics of MIF-GN3 in male nude mice; assay type: in vivo; details: one mpk dose
From the text: The ability of MIF-GN3 to mediate the depletion of injected human MIF from serum in mice was studied. First, the pharmacokinetics of the bifunctional molecule were investigated.

human MIF = target: T2, human MIF (Homo sapiens, UniProt P14174); experiment: Depletion of human MIF from cell culture supernatant (sandwich ELISA); assay type: cell-based; details: for removal of MIF from supernatant: after 48 hours, FIG. 129
T2 sequence (P14174 2-115 limits assumed): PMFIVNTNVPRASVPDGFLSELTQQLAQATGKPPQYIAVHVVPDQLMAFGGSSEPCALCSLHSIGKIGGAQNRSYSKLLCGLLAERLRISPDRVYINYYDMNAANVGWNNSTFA
Description: The ability of bifunctional MIF-binding molecules to mediate the depletion of human MIF from cell culture was investigated. In these assays, human MIF was present at a concentration of 100 nM, and a sandwich ELISA assay was utilized to measure the concentration of human MIF remaining in the cell culture supernatant. The closely related bifunctional molecules MIF-GN3, MIF-PEG2-GN3, and MIF-PEG4-GN3 were used, as well as the structurally dissimilar molecule MIF-NVS-PEG3-GN3. […] Based on the ease of its synthesis and its efficacy in this experiment, MIF-GN3 was utilized for further studies. It was next investigated whether the MIF inhibitor 3w mediates MIF depletion from cell culture supernatant. […] When cells were treated with 3w, no depletion of exogenous MIF protein was observed after 24 hours (FIG. 128B).
Bifunctional molecules containing optimized ASGPR-binding motifs are also capable of mediating MIF depletion from cell culture supernatant (FIG. 129). The MIF-binding molecule MIF-AF1, which contains only a single ASGPR-binding sugar, was not effective at mediating depletion of MIF from supernatant at any concentration tested. It is hypothesized that this is due to the compound's low predicted affinity for ASGPR (μM range). […] At a concentration of either 200 nM or 1 μM, MIF-AF2 mediated nearly 100%/o depletion of MLF from the cell culture supernatant after 48 hours. […] In contrast to these molecules, which utilize optimized synthetic ASGPR ligands, the GalNAc-based molecule MIF-GN3 mediated only 67.0% and 56.0% removal of MIF from supernatant after 48 hours at concentrations of 1 μM and 200 nM, respectively. […] At a concentration of 40 nM (4.0 pmol of molecule), MIF-AF3 mediates the removal of 83.2% of MIF present in the cell culture supernatant, or 8.32 pmol of human MIF protein. Therefore, it was concluded that under the conditions of this experiment, MIF-AF3 mediates the depletion of 2.08 molar equivalents of MIF protein.

## CC(=O)NC1C(OCCOCCOCCNC(=O)CCOCC(COCCC(=O)NCCOCCOCCOC2OC(CO)C(O)C(O)C2NC(C)=O)(COCCC(=O)NCCOCCOCCOC2OC(CO)C(O)C(O)C2NC(C)=O)NC(=O)CNC(=O)COCCOCCOCCNc2ccc([N+](=O)[O-])cc2[N+](=O)[O-])OC(CO)C(O)C1O (stereo not shown) [DNP-GN3]
α-DNP antibody; 200 μg monoclonal mouse IgG2 α-DNP antibody, daily and twice-daily 1 mpk, 21 days, nude mice
  serum α-DNP antibody levels compared to PBS: significantly reduced
α-DNP antibody; 1 mpk, FIG. 96
  α-DNP antibody depleted from serum 24 hours after a single dose: 52%
α-DNP antibody; 10 mpk, FIG. 96
  α-DNP antibody depleted from serum 24 hours after a single dose: 34%
α-DNP antibody; 100 mpk, FIG. 96
  α-DNP antibody depletion after a single dose: Significant depletion
α-DNP antibody; i.p. injection, FIG. 79A
  degradation of injected anti-DNP IgG antibodies in mouse serum: can induce degradation
α-DNP antibody; initial antibody dose of 500 μg, daily treatment
  serum α-DNP antibody levels compared to PBS: significant decrease
α-DNP antibody; mice immunized with DNP-KLH, daily treatment, each time point, FIG. 97
  depletion of polyclonal α-DNP antibody from serum compared to PBS: significantly more polyclonal α-DNP antibody was removed
HepG2 cells
  uptake of α-DNP antibody at low target protein concentration: not effective
[1]; DNP-GN3
  concentration of maximal ternary complex formation: 20 nM and 40 nM
[1]; higher of the two half-maximal concentrations of the bell-shaped response (prozone effect)
  concentration of DNP-GN3 eliciting half-maximal fluorescence association: 0.12 µM
[1]; lower of the two half-maximal concentrations of the bell-shaped response
  concentration of DNP-GN3 eliciting half-maximal fluorescence association: 0.0074 µM

## CC(=O)N[C@H]1[C@H](OCCOCCOCCNC(=O)CCOCC(COCCC(=O)NCCOCCOCCO[C@@H]2O[C@H](CO)[C@H](O)[C@H](O)[C@H]2NC(C)=O)(COCCC(=O)NCCOCCOCCO[C@@H]2O[C@H](CO)[C@H](O)[C@H](O)[C@H]2NC(C)=O)NC(=O)CNC(=O)CCCOc2ccc3nc(-c4cn(-c5ccc(O)c(F)c5)nn4)ccc3c2)O[C@H](CO)[C@H](O)[C@@H]1O [MIF-GN3]
[2]
  half-life in serum: 25.8 min
  time of maximum plasma concentration: 15 min
Human MIF; 200 nM
  removal of MIF from supernatant: 56.0%
Human MIF; 1 μM
  removal of MIF from supernatant: 67.0%
Human MIF; human MIF 100 nM, 24 hours, FIG. 128A
  depletion of human MIF from cell culture supernatant: effective
